Source: patent US20110152092A1, “Herbicidal compositions comprising flufenacet” (Bayer CropScience AG, priority 2009, published 2011)

Experiments:
HORVS = assay: Greenhouse trial, activity with different soil types; assay type: in vivo, Hordeum vulgare, summer barley; conditions: g of AS/ha: (A) 120, (B) 1200, (C) 90, mixture 120 + 1200 + 90
Procedure: (§1) In the standard design of the test, seeds of various broad-leaved weed and weed grass biotypes (origins) were sown in a 8-13 cm diameter pot filled with natural soil of a standard field soil (loamy silt; non-sterile) and covered with a covering soil layer of about 1 cm. The pots were then cultivated in a greenhouse (12-16 h of light, temperature day 20-22° C., night 15-18° C.) until the time of application. The pots were treated on a laboratory track sprayer with spray liquors comprising the compositions according to the invention, mixtures of the prior art or components used individually. Application of the active compounds or active compound combinations formulated as WG, WP, EC or otherwise was carried out at the appropriate growth stages of the plants. The application rate for the spray application was 100-600 l of water/ha. After the treatment, the plants were returned to the greenhouses.
(§2) About 3 weeks after the application, the soil action or/and foliar action was assessed visually according to a scale of 0-100% in comparison to an untreated comparative group: 0%=no noticeable effect compared to the untreated comparative group; 100%=full effect compared to the untreated comparative group.
(§3) (notes: the term “seeds” also includes vegetative propagation forms such as, for example, rhizome pieces; abbreviations used: h light=hours of illumination, g of AS/ha=gram of active substance per hectare, l/ha=liter per hectare, S=sensitive, R=resistant) • 1. Pre-emergence action against weeds: seeds of various broad-leaved weed and weed grass biotypes (origins) were sown in a 8-13 cm diameter pot filled with natural soil of a standard field soil (loamy silt; non-sterile) and covered with a covering soil layer of about 1 cm. The pots were then cultivated in a greenhouse (12-16 h of light, temperature day 20-22° C., night 15-18° C.) until the time of application. The pots were treated at the BBCH stage 00-10 of the seeds/plants on a laboratory track sprayer with spray liquors comprising the compositions according to the invention, mixtures or components used individually, as WG, WP, EC or other formulations. The application rate for the spray application was 100-600 l of water/ha. After the treatment, the plants were returned to the greenhouses and, when required, treated with fertilizer and watered. • 2. Post-emergence action against weeds: seeds of various broad-leaved weed and weed grass biotypes (origins) were sown in a 8-13 cm diameter pot filled with natural soil of a standard field soil (loamy silt; non-sterile) and covered with a covering soil layer of about 1 cm. The pots were then cultivated in a greenhouse (12-16 h of light, temperature day 20-22° C., night 15-18° C.) until the time of application. The pots were treated at various BBCH stages between 11-25 of the seeds/plants, i.e. generally between two to three weeks after the start of the cultivation, on a laboratory track sprayer with spray liquors comprising the compositions according to the invention, mixtures or components used individually, as WG, WP, EC or other formulations. The application rate for the spray application was 100-600 l of water/ha. After the treatment, the plants were returned to the greenhouses and, when required, treated with fertilizer and watered. • 3. […]

STEME [1] = assay: Greenhouse trial, PE application on sensitive and resistant biotypes (test method 8); assay type: in vivo, Stellaria media; conditions: g of AS/ha: (A) 90, (B) 1200, (C) 90, mixture 90 + 1200 + 90, iodosulfuron 10
Procedure: as §1
as §2, with “group. […]” for “group.”

ALOMY = assay: as above; assay type: in vivo, Alopecurus myosuroides; conditions: g of AS/ha: (A) 90, (B) 1200, (C) 90, mixture 90 + 1200 + 90, iodosulfuron 10
Procedure: as §1, §2
(§4) (notes: the term “seeds” also includes vegetative propagation forms such as, for example, rhizome pieces; abbreviations used: h light=hours of illumination, g of AS/ha=gram of active substance per hectare, l/ha=liter per hectare, S=sensitive, R=resistant) • 1. Pre-emergence action against weeds: seeds of various broad-leaved weed and weed grass biotypes (origins) were sown in a 8-13 cm diameter pot filled with natural soil of a standard field soil (loamy silt; non-sterile) and covered with a covering soil layer of about 1 cm. The pots were then cultivated in a greenhouse (12-16 h of light, temperature day 20-22° C., night 15-18° C.) until the time of application. The pots were treated at the BBCH stage 00-10 of the seeds/plants on a laboratory track sprayer with spray liquors comprising the compositions according to the invention, mixtures or components used individually, as WG, WP, EC or other formulations. The application rate for the spray application was 100-600 l of water/ha. After the treatment, the plants were returned to the greenhouses and, when required, treated with fertilizer and watered. • 2. Post-emergence action against weeds: seeds of various broad-leaved weed and weed grass biotypes (origins) were sown in a 8-13 cm diameter pot filled with natural soil of a standard field soil (loamy silt; non-sterile) and covered with a covering soil layer of about 1 cm. The pots were then cultivated in a greenhouse (12-16 h of light, temperature day 20-22° C., night 15-18° C.) until the time of application. The pots were treated at various BBCH stages between 11-25 of the seeds/plants, i.e. generally between two to three weeks after the start of the cultivation, on a laboratory track sprayer with spray liquors comprising the compositions according to the invention, mixtures or components used individually, as WG, WP, EC or other formulations. The application rate for the spray application was 100-600 l of water/ha. After the treatment, the plants were returned to the greenhouses and, when required, treated with fertilizer and watered. • 3. Selective pre-emergence action: seeds of various crop species (origins) were sown in a 8-13 cm diameter pot filled with natural soil of a standard field soil (loamy silt; non-sterile) and covered with a covering soil layer of about 1 cm. The pots were then cultivated in a greenhouse (12-16 h of light, temperature day 20-22° C., night 15-18° C.) until the time of application. The pots were treated at the BBCH stage 00-10 of the seeds/plants on a laboratory track sprayer with spray liquors comprising the compositions according to the invention, mixtures or components used individually, as WG, WP, EC or other formulations. The application rate for the spray application was 100-600 l of water/ha. […]

MATCH [2] = assay: Greenhouse trial, PE application with different irrigation variations (test method 6); assay type: in vivo, Matricaria chamomilla; conditions: g of AS/ha: (A) 120, (B) 1200, (C) 90, mixture 120 + 1200 + 90
Procedure: as §1, §2
(notes: the term “seeds” also includes vegetative propagation forms such as, for example, rhizome pieces; abbreviations used: h light=hours of illumination, g of AS/ha=gram of active substance per hectare, l/ha=liter per hectare, S=sensitive, R=resistant) • 1. Pre-emergence action against weeds: seeds of various broad-leaved weed and weed grass biotypes (origins) were sown in a 8-13 cm diameter pot filled with natural soil of a standard field soil (loamy silt; non-sterile) and covered with a covering soil layer of about 1 cm. The pots were then cultivated in a greenhouse (12-16 h of light, temperature day 20-22° C., night 15-18° C.) until the time of application. […]

AVEFA = assay: Greenhouse trial, PE application, pre-emergence action against weeds (test method 1); assay type: in vivo, Avena fatua; conditions: g of AS/ha: (A) 90, (B) 1200, (C) 90, mixture 90 + 1200
Procedure: as §1
as §2, with “group. […]” for “group.”

MATCH [3] = assay: Greenhouse trial, activity with different soil types; assay type: in vivo, Matricaria chamomilla; conditions: g of AS/ha: (A) 120, (B) 1200, (C) 90, mixture 120 + 1200 + 90
Procedure: as §1, §2, §3

STEME [4] = assay: as above; assay type: in vivo, Stellaria media; conditions: g of AS/ha: (A) 120, (B) 1200, (C) 90, mixture 120 + 1200 + 90
Procedure: as §1, §2, §4

CCC(CC)Nc1c([N+](=O)[O-])cc(C)c(C)c1[N+](=O)[O-] [(B) pendimethalin, N-(1-ethylpropyl)-3,4-dimethyl-2,6-dinitrobenzenamine]
activity on crop plant HORVS IU soil (visual, scale 0-100%) (HORVS; IU soil): 20% | Difference (of the soil types), HORVS (HORVS; IU/EC73 soil versus IU soil): −20% | activity on crop plant HORVS IU/EC73 soil (visual, scale 0-100%) (HORVS; IU/EC73 soil): 0% | activity STEME resistant (visual, scale 0-100%) (STEME [1]; resistant biotype): 10% | activity STEME sensitive (visual, scale 0-100%) (STEME [1]; sensitive biotype): 70% | activity ALOMY resistant (visual, scale 0-100%) (ALOMY; resistant biotype): 40% | activity ALOMY sensitive (visual, scale 0-100%) (ALOMY; sensitive biotype): 30% | activity MATCH (visual, scale 0-100%) (MATCH [2]; irrigation from above): 30% | activity MATCH (visual, scale 0-100%) (MATCH [2]; irrigation from below): 18% | activity AVEFA (visual, scale 0-100%) (AVEFA): 40% | activity MATCH IU soil (visual, scale 0-100%) (MATCH [3]; IU soil): 10% | Difference of the soil types, MATCH (MATCH [3]; IU/EC73 soil versus IU soil): −10% | activity MATCH IU/EC73 soil (visual, scale 0-100%) (MATCH [3]; IU/EC73 soil): 0% | activity STEME IU soil (visual, scale 0-100%) (STEME [4]; IU soil): 85% | Difference of the soil types, STEME (STEME [4]; IU/EC73 soil versus IU soil): −30% | activity STEME IU/EC73 soil (visual, scale 0-100%) (STEME [4]; IU/EC73 soil): 55%
